Entries after “also recorded” stand apart in the source; their conditions may differ.
What was measured:
fmr1 knockout mice = experiment: audiogenic seizures in the fmr1 knockout transgenic mouse model of Fragile X syndrome (Example 1); format: in vivo
Method: Male fmr1 knockout mice were bred and tested at 21 days old. All mice were acclimated to the environment, examined, handled, and weighed prior to initiation of the study to assure adequate health and suitability and to minimize non-specific stress associated with manipulation. During the course of the study, 12/12 light/dark cycles were maintained. The room temperature was maintained between 20 and 23° C. with a relative humidity maintained around 50%. Chow and water were provided ad libitum for the duration of the study. Each mouse was randomly assigned across treatment groups. The testing was performed during the animals' light cycle phase. SL327 (Sigma Aldrich, 400 mg/kg) was dissolved in 5% Tween80 and saline and administered i.p. at a dose volume of 10 ml/kg 30 min prior to test. Mice were individually placed in a Plexiglas chamber and allowed to explore for 15 sec following which they were exposed to a 125 dB tone for 2 minutes, followed by 1 minute of no sound, and then a further 2 minute tone. The mice were scored based on their response, latency, and seizure intensity: […]

FMRI knockout mice = experiment: audiogenic seizure test in FMRI knockout mice (Example 2); format: in vivo
Method: Male FMRI knockout mice were bred at PsychoGenies and tested at 21 days old. All mice were acclimated to the environment, examined, handled, and weighed prior to initiation of the study to assure adequate health and suitability and to minimize non-specific stress associated with manipulation. During the course of the study, 12/12 light/dark cycles were maintained. The room temperature was maintained between 20 and 23° C. with a relative humidity maintained around 50%. Chow and water were provided ad libitum for the duration of the study. Each mouse was randomly assigned across treatment groups. The testing was performed during the animals' light cycle phase
The following compounds were used.
Mice were individually placed in a Plexiglas chamber and allowed to explore for 15 sec following which they were exposed to a 125 dB tone for 2 minutes, followed by 1 minute of no sound, and then a further 2 minute tone. The mice were scored based on their response, latency, and seizure intensity:
Data were analyzed by analysis of variance (ANOVA) followed by post-hoc comparisons with Fisher Tests when appropriate. An effect was considered significant if p<0.05. Data are presented as the mean±standard error of the mean.

[1] = perillyl alcohol 25 mg/kg i.p., 60 min prior to testing
[2] = perillyl alcohol 50 mg/kg i.p., 60 min prior to testing
[3] = MPEP 30 mg/kg i.p., 30 min prior to testing

N#C/C(=C(/N)Sc1ccc(N)cc1)c1ccccc1C(F)(F)F [SL327, (2Z)-3-amino-3-[(4-aminophenyl)sulfanyl]-2-[2-(trifluoromethyl)phenyl]prop-2-enenitrile]
mean seizure score compared to vehicle (fmr1 knockout mice; SL327 400 mg/kg i.p.): significantly lower seizure score
survival (fmr1 knockout mice; SL327 400 mg/kg i.p.): All mice receiving SL327 survived
survival rate following testing (fmr1 knockout mice; SL327 400 mg/kg i.p.): 100%
audiogenic seizure activity (fmr1 knockout mice; SL327 400 mg/kg i.p. 30 min prior to test, male fmr1 knockout mice, 21 days old, vs Tween80 vehicle, 400 mg/kg): absence of any audiogenic seizure activity; also recorded: completely inhibits all seizure activity; also recorded: seizure activity was completely prevented
latency to seizure onset (fmr1 knockout mice; SL327 400 mg/kg i.p., 240 sec = maximum total time of audiogenic stimulation, given to animals with no response): > 240 s
seizure score (fmr1 knockout mice; SL327 400 mg/kg i.p., scale 0 (no response) to 5 (respiratory arrest)): 0

C=C(C)[C@@H]1CC=C(CO)CC1 [perillyl alcohol, [(4S)-4-(prop-1-en-2-yl)cyclohex-1-en-1-yl]methanol]
latency to onset of seizure compared to respective vehicle (FMRI knockout mice; [1]): significantly delayed the onset; also recorded: increased the latency to seizure
latency to respiratory arrest compared to respective vehicle (FMRI knockout mice; [1]): significantly delayed the onset; also recorded: significantly prolonged the latency to respiratory arrest
mean seizure score compared to vehicle (FMRI knockout mice; [1]): attenuated overall seizure score; also recorded: significantly decreased seizure score
latency to onset of seizure compared to respective vehicle (FMRI knockout mice; [2]): significantly delayed the onset; also recorded: increased the latency to seizure
latency to respiratory arrest compared to respective vehicle (FMRI knockout mice; [2]): significantly delayed the onset; also recorded: significantly prolonged the latency to respiratory arrest
mean seizure score compared to vehicle (FMRI knockout mice; [2]): attenuated overall seizure score; also recorded: significantly decreased seizure score

Cc1cccc(C#Cc2ccccc2)n1.Cl [MPEP]
respiratory distress during testing (FMRI knockout mice; MPEP 30 mg/kg i.p.): no respiratory distress
latency to onset of seizure compared to respective vehicle (FMRI knockout mice; [3]): significantly delayed the onset; also recorded: increased the latency to seizure
latency to respiratory arrest compared to respective vehicle (FMRI knockout mice; [3]): significantly delayed the onset; also recorded: significantly prolonged the latency to respiratory arrest
mean seizure score compared to vehicle (FMRI knockout mice; [3]): attenuated overall seizure score; also recorded: significantly decreased seizure score
latency to respiratory arrest (FMRI knockout mice; MPEP 30 mg/kg i.p., 240 sec given to animals with no response): 240 s
clinical signs or toxicity during pretreatment or testing (FMRI knockout mice; i.p., MPEP HCI 30 mg/kg, perillyl alcohol 25 and 50 mg/kg): No clinical signs or toxicity were observed

From US20150141380A1, “INHIBITORS OF ERK FOR DEVELOPMENTAL DISORDERS OF NEURONAL CONNECTIVITY” (CASE WESTERN RESERVE UNIVERSITY, priority 2010, published 2015)
